From patent US6737383B1, “Herbicidal oxadiazolidines” (priority 1999, dated 2004)

How the values were obtained:
sugar beet = test: Test B pre/postemergence sugar beet; format: in vivo, Beta vulgaris
Method in brief: (§1)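 Herbicidal effect was estimated by eye on a ten-point control scale after plants spent twelve to sixteen days in a greenhouse following soil or foliar treatment. Foliar sprays targeted plants at one to four leaves; all doses were formulated in a non-phytotoxic solvent with surfactant.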

bedstraw = test: Test B pre/postemergence bedstraw; format: in vivo, Galium aparine
Method in brief: as §1

velvetleaf = test: Test B pre/postemergence velvetleaf; format: in vivo, Abutilon theophrasti
Method in brief: as §1

corn = test: Test B pre/postemergence corn; format: in vivo, Zea mays
Method in brief: as §1

surinam grass = test: Test B pre/postemergence surinam grass; format: in vivo, Brachiaria decumbens
Method in brief: as §1

rape = test: Test B pre/postemergence rape; format: in vivo, Brassica napus
Method in brief: as §1

crabgrass = test: Test B pre/postemergence crabgrass; format: in vivo, Digitaria sanguinalis
Method in brief: as §1

cocklebur = test: Test B pre/postemergence cocklebur; format: in vivo, Xanthium strumarium
Method in brief: as §1

wheat = test: Test B pre/postemergence wheat; format: in vivo, Triticum aestivum
Method in brief: as §1

blackgrass = test: Test B pre/postemergence blackgrass; format: in vivo, Alopecurus myosuroides
Method in brief: as §1

wild oat = test: Test B pre/postemergence wild oat; format: in vivo, Avena fatua
Method in brief: as §1

soybean = test: Test B pre/postemergence soybean; format: in vivo, Glycine max
Method in brief: as §1

morningglory = test: Test B pre/postemergence morningglory; format: in vivo, Ipomoea hederacea
Method in brief: as §1

pigweed = test: Test B pre/postemergence pigweed; format: in vivo, Amaranthus retroflexus
Method in brief: as §1

purple nutsedge = test: Test B pre/postemergence purple nutsedge; format: in vivo, Cyperus rotundus
Method in brief: as §1

giant foxtail = test: Test B pre/postemergence giant foxtail; format: in vivo, Setaria faberii
Method in brief: as §1

[1] = Postemergence, Rate 62 g/ha, scale 0 to 10, 0 is no effect, 10 is complete control
[2] = Postemergence, Rate 125 g/ha, scale of 0 to 10 where 0 is no effect and 10 is complete control
[3] = Preemergence, Rate 62 g/ha, scale of 0 to 10 where 0 is no effect and 10 is complete control
[4] = Preemergence, Rate 125 g/ha, scale of 0 to 10 where 0 is no effect and 10 is complete control
[5] = Preemergence, Rate 250 g/ha, scale 0 (no effect) to 10 (complete control)
[6] = Rate 250 g/ha, Postemergence, scale 0 to 10, 0 is no effect, 10 is complete control
[7] = Rate 500 g/ha, Postemergence, scale 0 to 10, 0 is no effect, 10 is complete control
[8] = Preemergence, Rate 500 g/ha, scale of 0 to 10 where 0 is no effect and 10 is complete control

## CC(C)N(C(=O)n1oc(=O)n(C[C@H](C)Cl)c1=O)c1ccc(F)cc1F [Compound 714]
Sugar beet; [1]
  Plant response rating, Sugarbeets: 0
Sugar beet; [2]
  Sugarbeets plant response rating: 6
Sugar beet; [3]
  Sugarbeets plant response rating: 2
Sugar beet; [4]
  Plant response rating, Sugarbeets: 4
Sugar beet; [5]
  Sugarbeets plant response rating: 4
Sugar beet; [6]
  Sugarbeets plant response rating: 7
Sugar beet; [7]
  Sugarbeets plant response rating: 7
bedstraw; [2]
  Bedstraw plant response rating: 3
bedstraw; [3]
  Bedstraw plant response rating: 0
bedstraw; [4]
  Plant response rating, Bedstraw: 8
bedstraw; [5]
  Bedstraw plant response rating: 9
velvetleaf; [1]
  Plant response rating, Velvetleaf: 2
velvetleaf; [2]
  Velvetleaf plant response rating: 2
velvetleaf; [3]
  Velvetleaf plant response rating: 6
velvetleaf; [4]
  Plant response rating, Velvetleaf: 5
velvetleaf; [5]
  Velvetleaf plant response rating: 2
velvetleaf; [6]
  Velvetleaf plant response rating: 2
velvetleaf; [7]
  Velvetleaf plant response rating: 3
corn; [1]
  Plant response rating, Corn: 0
corn; [2]
  Corn plant response rating: 0
corn; [3]
  Corn plant response rating: 0
corn; [4]
  Plant response rating, Corn: 0
corn; [5]
  Corn plant response rating: 5
corn; [6]
  Corn plant response rating: 0
corn; [7]
  Corn plant response rating: 0
Surinam grass; [1]
  Plant response rating, B. signalgrass: 2
Surinam grass; [2]
  B. signalgrass plant response rating: 2
Surinam grass; [3]
  B. signalgrass plant response rating: 7
Surinam grass; [4]
  Plant response rating, B. signalgrass: 9
Surinam grass; [5]
  B. signalgrass plant response rating: 10
Surinam grass; [8]
  Plant response rating, B. signalgrass: 10
Surinam grass; [6]
  B. signalgrass plant response rating: 6
Surinam grass; [7]
  B. signalgrass plant response rating: 6
rape; [1]
  Plant response rating, Rape: 5
rape; [2]
  Rape plant response rating: 5
rape; [3]
  Rape plant response rating: 2
rape; [4]
  Plant response rating, Rape: 3
rape; [5]
  Rape plant response rating: 6
rape; [6]
  Rape plant response rating: 8
rape; [7]
  Rape plant response rating: 9
crabgrass; [1]
  Plant response rating, Crabgrass: 4
crabgrass; [2]
  Crabgrass plant response rating: 9
crabgrass; [3]
  Crabgrass plant response rating: 10
crabgrass; [4]
  Plant response rating, Crabgrass: 10
crabgrass; [5]
  Crabgrass plant response rating: 10
crabgrass; [6]
  Crabgrass plant response rating: 9
crabgrass; [7]
  Crabgrass plant response rating: 9
cocklebur; [1]
  Plant response rating, Cocklebur: 0
cocklebur; [2]
  Cocklebur plant response rating: 2
cocklebur; [3]
  Cocklebur plant response rating: 0
cocklebur; [4]
  Plant response rating, Cocklebur: 0
cocklebur; [5]
  Cocklebur plant response rating: 0
cocklebur; [8]
  Plant response rating, Cocklebur: 0
cocklebur; [6]
  Cocklebur plant response rating: 2
cocklebur; [7]
  Cocklebur plant response rating: 3
wheat; [1]
  Plant response rating, Wheat: 0
wheat; [2]
  Wheat plant response rating: 0
wheat; [3]
  Wheat plant response rating: 0
wheat; [4]
  Plant response rating, Wheat: 4
wheat; [5]
  Wheat plant response rating: 6
wheat; [6]
  Wheat plant response rating: 3
wheat; [7]
  Wheat plant response rating: 6
blackgrass; [1]
  Plant response rating, Blackgrass: 7
blackgrass; [2]
  Blackgrass plant response rating: 7
blackgrass; [3]
  Blackgrass plant response rating: 7
blackgrass; [4]
  Plant response rating, Blackgrass: 8
blackgrass; [5]
  Blackgrass plant response rating: 9
blackgrass; [8]
  Plant response rating, Blackgrass: 9
blackgrass; [6]
  Blackgrass plant response rating: 6
blackgrass; [7]
  Blackgrass plant response rating: 7
Wild oat; [1]
  Plant response rating, Wild oats: 0
Wild oat; [2]
  Wild oats plant response rating: 0
Wild oat; [3]
  Wild oats plant response rating: 0
Wild oat; [4]
  Plant response rating, Wild oats: 4
Wild oat; [5]
  Wild oats plant response rating: 6
Wild oat; [6]
  Wild oats plant response rating: 4
Wild oat; [7]
  Wild oats plant response rating: 9
soybean; [1]
  Plant response rating, Soybean: 2
soybean; [2]
  Soybean plant response rating: 4
soybean; [3]
  Soybean plant response rating: 0
soybean; [4]
  Plant response rating, Soybean: 0
soybean; [5]
  Soybean plant response rating: 0
soybean; [6]
  Soybean plant response rating: 4
soybean; [7]
  Soybean plant response rating: 3
morningglory; [1]
  Plant response rating, Morningglory: 0
morningglory; [3]
  Morningglory plant response rating: 0
morningglory; [4]
  Plant response rating, Morningglory: 2
morningglory; [5]
  Morningglory plant response rating: 0
morningglory; [6]
  Morningglory plant response rating: 2
morningglory; [7]
  Morningglory plant response rating: 2
pigweed; [1]
  Plant response rating, Redroot pigweed: 5
pigweed; [2]
  Redroot pigweed plant response rating: 8
pigweed; [3]
  Redroot pigweed plant response rating: 10
pigweed; [4]
  Plant response rating, Redroot pigweed: 9
pigweed; [5]
  Redroot pigweed plant response rating: 10
pigweed; [6]
  Redroot pigweed plant response rating: 9
pigweed; [7]
  Redroot pigweed plant response rating: 9
Purple nutsedge; [1]
  Plant response rating, Nutsedge: 0
Purple nutsedge; [2]
  Nutsedge plant response rating: 0
Purple nutsedge; [3]
  Nutsedge plant response rating: 0
Purple nutsedge; [4]
  Plant response rating, Nutsedge: 0
Purple nutsedge; [5]
  Nutsedge plant response rating: 0
Purple nutsedge; [6]
  Nutsedge plant response rating: 5
Purple nutsedge; [7]
  Nutsedge plant response rating: 5
Giant foxtail; [1]
  Plant response rating, Giant foxtail: 6
Giant foxtail; [2]
  Giant foxtail plant response rating: 6
Giant foxtail; [3]
  Giant foxtail plant response rating: 10
Giant foxtail; [4]
  Plant response rating, Giant foxtail: 10
Giant foxtail; [5]
  Giant foxtail plant response rating: 10
Giant foxtail; [6]
  Giant foxtail plant response rating: 7
Giant foxtail; [7]
  Giant foxtail plant response rating: 8
